# Source: US20090030024A1, “THIAZOLES AS FUNGICIDES” (priority 2005, published 2009)
# Test: logP determination by retention times (calibration with alkan-2-ones)
# Conditions: logP(HCOOH), HCOOH
row,Structure (SMILES),chromatographic logP
1,"COc1cc(Nc2ncc(Cl)c(-c3sc(C)nc3C)n2)cc(OC)c1OC [Example 874, 5-Chloro-4-(2,4-dimethyl-1,3-thiazol-5-yl)-N-(3,4,5-trimethoxyphenyl)-pyrimidine-2-amine]",2.82

# Same assay, conditions: logP, values marked *: HPLC on reversed-phase C 18, 40° C., mobile phase 0.1% aqueous formic acid and acetonitrile, linear gradient 10% to 95% acetonitrile
row,Structure (SMILES),chromatographic logP
1,"Cc1ccc(Nc2nccc(-c3sc(NCC4CCCO4)nc3C)n2)cc1[N+](=O)[O-] (stereo not drawn) [Example 810, N-(4-methyl-3-nitrophenyl)-4-{4-methyl-2-[(tetrahydrofuran-2-ylmethyl)amino]-1,3-thiazol-5-yl}pyrimidine-2-amine]",2.33
2,"CC(=O)c1ccc(Nc2nccc(-c3sc(NCC4CCCO4)nc3C)n2)cc1 (stereo not drawn) [Example 816, 1-{4-[(4-{4-methyl-2-[(tetrahydrofuran-2-ylmethyl)amino]-1,3-thiazol-5-yl}pyrimidin-2-yl)amino]phenyl}ethanone]",1.83
3,"COc1ccc(Nc2nccc(-c3sc(NCC4CCCO4)nc3C)n2)cc1OC (stereo not drawn) [Example 817, N-(3,4-dimethoxyphenyl)-4-{4-methyl-2-[(tetrahydrofuran-2-ylmethyl)amino]-1,3-thiazol-5-yl}pyrimidine-2-amine]",1.65
4,"CC(=O)Nc1cccc(Nc2nccc(-c3sc(C(C)C)nc3C)n2)c1 [Example 818, N-(3-{[4-(2-isopropyl-4-methyl-1,3-thiazol-5-yl)pyrimidin-2-yl]amino}phenyl)acetamide]",2.26
5,"COc1ccc(Nc2nccc(-c3sc(C(C)C)nc3C)n2)cc1OC [Example 819, N-(3,4-dimethoxyphenyl)-4-(2-isopropyl-4-methyl-1,3-thiazol-5-yl)pyrimidine-2-amine]",2.85
6,"CC(=O)c1ccc(Nc2nccc(-c3sc(C(C)C)nc3C)n2)cc1 [Example 820, 1-(4-{[4-(2-isopropyl-4-methyl-1,3-thiazol-5-yl)pyrimidin-2-yl]amino}phenyl)ethanone]",3.06
7,"COc1ccc(Nc2nccc(-c3sc(C(C)C)nc3C)n2)cc1 [Example 821, 4-(2-isopropyl-4-methyl-1,3-thiazol-5-yl)-N-(4-methoxyphenyl)pyrimidine-2-amine]",3.25
8,"Cc1nc(C(C)C)sc1-c1ccnc(Nc2ccc(N3CCCC3=O)cc2)n1 [Example 831, 1-(4-{[4-(2-isopropyl-4-methyl-1,3-thiazol-5-yl)pyrimidin-2-yl]amino}phenyl)pyrrolidin-2-one]",2.56
9,"COCCNc1nc(C)c(-c2ccnc(Nc3ccc(F)cc3F)n2)s1 [Example 832, N-(2,4-difluorophenyl)-4-{2-[(2-methoxyethyl)amino]-4-methyl-1,3-thiazol-5-yl}pyrimidine-2-amine]",1.99
10,"CCc1nc(C)c(-c2ccnc(Nc3ccc(F)c(N4CCN(C(C)=O)CC4)c3)n2)s1 [Example 848, N-[3-(4-acetylpiperazin-1-yl)-4-fluorophenyl]-4-(2-ethyl-4-methyl-1,3-thiazol-5-yl)pyrimidine-2-amine]",2.42
11,"COCCCNc1nc(C)c(-c2ccnc(Nc3ccc(F)cc3)n2)s1 [Example 851, N-(4-fluorophenyl)-4-{2-[(3-methoxypropyl)amino]-4-methyl-1,3-thiazol-5-yl}pyrimidine-2-amine]",1.92
12,"COCCCNc1nc(C)c(-c2ccnc(Nc3cccc(OC)c3)n2)s1 [Example 852, N-(3-methoxyphenyl)-4-{2-[(3-methoxypropyl)amino]-4-methyl-1,3-thiazol-5-yl}pyrimidine-2-amine]",1.89
13,"COCCCNc1nc(C)c(-c2ccnc(Nc3cccc(NC(C)=O)c3)n2)s1 [Example 853, N-{3-[(4-{2-[(3-methoxypropyl)amino]-4-methyl-1,3-thiazol-5-yl}pyrimidin-2-yl)amino]phenyl}acetamide]",1.44
14,"COCCCNc1nc(C)c(-c2ccnc(Nc3ccc(NC(C)=O)cc3)n2)s1 [Example 854, N-{4-[(4-{2-[(3-methoxypropyl)amino]-4-methyl-1,3-thiazol-5-yl}pyrimidin-2-yl)amino]phenyl}acetamide]",1.4
15,"COCCCNc1nc(C)c(-c2ccnc(Nc3ccc(C(C)=O)cc3)n2)s1 [Example 855, 1-{4-[(4-{2-[(3-methoxypropyl)amino]-4-methyl-1,3-thiazol-5-yl}pyrimidin-2-yl)amino]phenyl}ethanone]",1.81
16,"COCCCNc1nc(C)c(-c2ccnc(Nc3ccc(N4CCCC4=O)cc3)n2)s1 [Example 856, 1-{4-[(4-{2-[(3-methoxypropyl)amino]-4-methyl-1,3-thiazol-5-yl}pyrimidin-2-yl)amino]phenyl}pyrrolidin-2-one]",1.57

row,Structure (SMILES),chromatographic logP
1,"COCCCNc1nc(C)c(-c2ccnc(Nc3ccc(F)c(C)c3)n2)s1 [Example 857, N-(4-fluoro-3-methylphenyl)-4-{2-[(3-methoxypropyl)amino]-4-methyl-1,3-thiazol-5-yl}pyrimidine-2-amine]",2.11
2,"COCCCNc1nc(C)c(-c2ccnc(Nc3ccc(OC)nc3)n2)s1 [Example 858, 4-{2-[(3-methoxypropyl)amino]-4-methyl-1,3-thiazol-5-yl}-N-(6-methoxypyridin-3-yl)pyrimidine-2-amine]",1.57
3,"COCCCNc1nc(C)c(-c2ccnc(Nc3cccc(N4CCCC4=O)c3)n2)s1 [Example 861, 1-{3-[(4-{2-[(3-methoxypropyl)amino]-4-methyl-1,3-thiazol-5-yl}pyrimidin-2-yl)amino]phenyl}pyrrolidin-2-one]",1.62
4,"CCc1nc(C)c(-c2ccnc(Nc3ccc(F)c(OC)c3)n2)s1 [Example 863, 4-(2-ethyl-4-methyl-1,3-thiazol-5-yl)-N-(4-fluoro-3-methoxyphenyl)pyrimidine-2-amine]",2.99
5,"COCC(C)Nc1nc(C)c(-c2ccnc(Nc3ccc(S(N)(=O)=O)cc3)n2)s1 (stereo not drawn) [Example 864, 4-[(4-{2-[(2-methoxy-1-methylethyl)amino]-4-methyl-1,3-thiazol-5-yl}pyrimidin-2-yl)amino]benzenesulphonamide]",1.49
6,"COCCCNc1nc(C)c(-c2ccnc(Nc3cccc([N+](=O)[O-])c3)n2)s1 [Example 865, 4-{2-[(3-methoxypropyl)amino]-4-methyl-1,3-thiazol-5-yl}-N-(3-nitrophenyl)pyrimidine-2-amine]",2.03
7,"COCCCNc1nc(C)c(-c2ccnc(Nc3cc(OC)c(OC)c(OC)c3)n2)s1 [Example 866, 4-{2-[(3-methoxypropyl)amino]-4-methyl-1,3-thiazol-5-yl}-N-(3,4,5-trimethoxyphenyl)pyrimidine-2-amine]",1.73
8,"COCCNc1nc(C)c(-c2ccnc(Nc3ccc(Cl)nc3)n2)s1 [Example 872, N-(6-chloropyridin-3-yl)-4-{2-[(2-methoxyethyl)amino]-4-methyl-1,3-thiazol-5-yl}pyrimidine-2-amine]",1.71
9,"Cc1nc(C)c(-c2nc(Nc3ccccc3)ncc2Cl)s1 [Example 873, 5-chloro-4-(2,4-dimethyl-1,3-thiazol-5-yl)-N-phenylpyrimidine-2-amine]",3.26
10,"COc1cc(Nc2ncc(Cl)c(-c3sc(C)nc3C)n2)cc(OC)c1OC [Example 874, 5-Chloro-4-(2,4-dimethyl-1,3-thiazol-5-yl)-N-(3,4,5-trimethoxyphenyl)-pyrimidine-2-amine]",2.82
11,"Cc1nc(C)c(-c2nc(Nc3cccc(Cl)c3)ncc2Cl)s1 [Example 875, 5-chloro-N-(3-chlorophenyl)-4-(2,4-dimethyl-1,3-thiazol-5-yl)pyrimidine-2-amine]",3.86
12,"CCc1nc(C)c(-c2nc(Nc3ccccc3)ncc2Cl)s1 [Example 876, 5-chloro-4-(2-ethyl-4-methyl-1,3-thiazol-5-yl)-N-phenylpyrimidine-2-amine]",3.78
13,"CCc1nc(C)c(-c2nc(Nc3ccc(Cl)cc3)ncc2Cl)s1 [Example 877, 5-chloro-N-(4-chlorophenyl)-4-(2-ethyl-4-methyl-1,3-thiazol-5-yl)pyrimidine-2-amine]",4.48
14,"CCc1nc(C)c(-c2nc(Nc3ccccc3Cl)ncc2Cl)s1 [Example 878, 5-chloro-N-(2-chlorophenyl)-4-(2-ethyl-4-methyl-1,3-thiazol-5-yl)pyrimidine-2-amine]",4.62
15,"CCc1nc(C)c(-c2ccnc(Nc3ccc(N(C)C)cc3)n2)s1 [Example 879, N′-[4-(2-ethyl-4-methyl-1,3-thiazol-5-yl)pyrimidin-2-yl]-N,N-dimethylbenzene-1,4-diamine]",1.56
16,"CCc1nc(C)c(-c2ccnc(Nc3cccc(N(C)C)c3)n2)s1 [Example 880, N′-[4-(2-ethyl-4-methyl-1,3-thiazol-5-yl)pyrimidin-2-yl]-N,N-dimethylbenzene-1,3-diamine]",1.99

# Same assay, conditions: values marked *: HPLC on reversed-phase C 18, 40° C., mobile phase 0.1% aqueous formic acid and acetonitrile, linear gradient 10% to 95% acetonitrile
row,Structure (SMILES),logP
1,"Cc1nc(N(C)C)sc1-c1ccnc(Nc2ccc(F)cc2)n1 [Example 849, 4-[2-(dimethylamine)-4-methyl-1,3-thiazol-5-yl]-N-(4-fluorophenyl)pyrimidine-2-amine]",1.99*
2,"COc1cc(Nc2nccc(-c3sc(N(C)C)nc3C)n2)cc(OC)c1OC [Example 850, 4-[2-(dimethylamine)-4-methyl-1,3-thiazol-5-yl]-N-(3,4,5-trimethoxyphenyl)pyrimidine-2-amine]",1.77*
3,"CN(C)c1nc(C(F)(F)F)c(-c2ccnc(Nc3cccc([N+](=O)[O-])c3)n2)s1 [Example 859, 4-[2-(dimethylamine)-4-(trifluoromethyl)-1,3-thiazol-5-yl]-N-(3-nitrophenyl)pyrimidine-2-amine]",3.99*
4,"CC(=O)Nc1cccc(Nc2nccc(-c3sc(N(C)C)nc3C(F)(F)F)n2)c1 [Example 860, N-[3-({4-[2-(dimethylamine)-4-(trifluoromethyl)-1,3-thiazol-5-yl]pyrimidin-2-yl}amino)phenyl]acetamide]",2.65*
5,"CC(=O)Nc1ccc(Nc2nccc(-c3sc(N(C)C)nc3C)n2)cc1 [Example 862, N-[4-({4-[2-(dimethylamine)-4-methyl-1,3-thiazol-5-yl]pyrimidin-2-yl}amino)phenyl]acetamide]",1.33*
6,"CC(=O)c1ccc(Nc2nccc(-c3sc(N(C)C)nc3C)n2)cc1 [Example 867, 1-[4-({4-[2-(dimethylamine)-4-methyl-1,3-thiazol-5-yl]pyrimidin-2-yl}amino)phenyl]ethanone]",1.9*
